Results from patent publication US20090042823A1 (priority 2007, published 2009).

System: PR8 virus
Design: species or system influenza A virus
Details: in vivo

CCOC(=O)C1=C[C@@H](OC(CC)CC)[C@H](NC(C)=O)[C@@H](N)C1 [oseltamivir drug, oseltamivir]
influenza viral titer relative to GFP control siRNA: reduced influenza viral titers
